These results are taken from paper PMC6502651 (ChemMedChem, 2019).

Assay [1] deals with 3D7 line of P. falciparum. Put plainly: P. falciparum asexual intraerythrocytic growth inhibition. In kind it is cell-based. To be noted: for IC50: Plasmodium falciparum.
Assay [2] relates to HepG2 cells. Kind of assay: HepG2 cytotoxicity bioluminescence assay. In kind it is cell-based. To be noted: Homo sapiens, HepG2, 48 h, read-out: IC50 (HepG2).
Assay [3] relates to P. berghei exo-erythrocytic forms. Put plainly: P. berghei-Luc liver stage assay. To be noted: for Selectivity index (SI) = (mammalian cell IC50)/(Pb EEF IC50): HepG2 vs Pb EEF; for IC50: Plasmodium berghei, 48 h, read-out: Pb EEF IC50. The format is cell-based.
For assay [4], the system named is mature stage V P. falciparum gametocytes. Put plainly: Gametocytocidal activity. The format is cell-based. To be noted: Plasmodium falciparum, NF54, 48 h, read-out: Pf stage V gametocytes IC50.
In assay [5] the target is T1, human HDAC1 (hHDAC1) (Homo sapiens, UniProt Q13547). Kind of assay: In vitro testing on hHDAC1.
For assay [6], the target named is T2, human HDAC6 (hHDAC6) (Homo sapiens, UniProt Q9UBN7).
T2 sequence (Q9UBN7 1-1215): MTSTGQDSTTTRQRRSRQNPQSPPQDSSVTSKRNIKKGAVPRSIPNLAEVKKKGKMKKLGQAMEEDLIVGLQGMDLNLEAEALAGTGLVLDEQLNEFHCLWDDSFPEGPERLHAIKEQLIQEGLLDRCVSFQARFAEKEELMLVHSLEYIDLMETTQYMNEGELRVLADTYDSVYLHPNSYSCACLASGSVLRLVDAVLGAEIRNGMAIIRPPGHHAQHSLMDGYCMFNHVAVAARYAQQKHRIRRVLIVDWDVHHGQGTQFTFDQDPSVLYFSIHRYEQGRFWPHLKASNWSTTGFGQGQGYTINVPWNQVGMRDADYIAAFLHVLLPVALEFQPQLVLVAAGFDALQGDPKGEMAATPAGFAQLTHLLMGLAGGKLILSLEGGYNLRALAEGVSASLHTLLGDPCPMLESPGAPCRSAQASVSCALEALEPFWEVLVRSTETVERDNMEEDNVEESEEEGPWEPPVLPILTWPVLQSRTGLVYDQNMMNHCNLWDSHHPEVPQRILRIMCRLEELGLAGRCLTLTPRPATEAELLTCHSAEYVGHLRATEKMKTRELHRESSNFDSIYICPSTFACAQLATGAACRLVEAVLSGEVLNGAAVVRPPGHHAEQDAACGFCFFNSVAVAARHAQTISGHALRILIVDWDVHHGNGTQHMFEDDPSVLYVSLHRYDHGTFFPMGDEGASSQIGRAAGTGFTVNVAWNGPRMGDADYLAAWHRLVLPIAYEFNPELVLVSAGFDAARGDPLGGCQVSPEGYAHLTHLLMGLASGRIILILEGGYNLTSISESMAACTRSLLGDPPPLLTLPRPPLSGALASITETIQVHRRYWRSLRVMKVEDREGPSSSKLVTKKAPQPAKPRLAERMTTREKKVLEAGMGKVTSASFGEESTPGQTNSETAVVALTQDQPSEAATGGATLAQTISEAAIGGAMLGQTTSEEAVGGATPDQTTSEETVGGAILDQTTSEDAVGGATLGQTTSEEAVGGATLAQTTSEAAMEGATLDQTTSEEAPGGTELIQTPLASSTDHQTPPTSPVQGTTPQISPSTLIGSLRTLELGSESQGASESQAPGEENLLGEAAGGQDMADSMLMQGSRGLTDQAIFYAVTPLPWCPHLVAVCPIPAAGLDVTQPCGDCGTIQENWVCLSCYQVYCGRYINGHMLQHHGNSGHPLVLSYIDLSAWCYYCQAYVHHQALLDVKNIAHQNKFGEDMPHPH
Put plainly: In vitro testing on hHDAC6.

The target in assay [7] is T1, human HDAC1 (hHDAC1). Particulars: read-out: hHDAC1 IC50; reference HDACi; ref [22]–[23]; cited from earlier work.
The test system of assay [8] is P. falciparum histone H4. Put plainly: Protein hyperacetylation assay. In kind it is cell-based. To be noted: trophozoite-stage Pf 3D7, 3 h, 5x IC50.
Where [9] appears, read: 3D7, read-out: IC50 (Pf3D7), asexual intraerythrocytic stage P. falciparum 3D7.

Where two headings read alike, the source gives them in different places. Where only a bound is given, the exact number is not on record here.

T1 sequence (Q13547 whole entry): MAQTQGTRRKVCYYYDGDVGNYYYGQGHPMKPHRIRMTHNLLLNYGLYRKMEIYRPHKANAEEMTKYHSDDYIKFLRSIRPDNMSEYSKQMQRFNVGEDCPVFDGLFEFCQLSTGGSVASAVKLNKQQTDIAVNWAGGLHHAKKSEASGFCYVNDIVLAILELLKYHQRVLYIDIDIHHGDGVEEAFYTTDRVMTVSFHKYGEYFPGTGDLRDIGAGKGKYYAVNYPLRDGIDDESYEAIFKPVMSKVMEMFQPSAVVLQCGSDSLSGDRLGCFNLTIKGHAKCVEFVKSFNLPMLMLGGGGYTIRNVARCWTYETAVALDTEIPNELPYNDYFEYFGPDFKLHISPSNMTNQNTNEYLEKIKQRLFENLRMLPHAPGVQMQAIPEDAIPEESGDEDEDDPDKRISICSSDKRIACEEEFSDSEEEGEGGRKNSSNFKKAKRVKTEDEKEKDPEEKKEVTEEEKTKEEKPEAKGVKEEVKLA

As to `CN(C)c1ccc(C(=O)N(Cc2ccc(C(=O)NO)cc2)C(C(=O)NC2CCCCC2)c2ccccc2)cc1` (racemic) [Compound 2d, rac-N-(2-(Cyclohexylamino)-2-oxo-1-phenylethyl)-4-(dimethylamino)-N-(4-(hydroxycarbamoyl)benzyl)benzamide], the IC50 (in general, the concentration that gives 50% inhibition) in assay [1] (setting [9]) was 0.39 µM; in assay [2] it was greater than 50 µM; in assay [3] it was 19.3 µM; in assay [4], 14.8 µM; in assay [5] it was 0.84 µM; in assay [6] it was 0.064 µM. The “Selectivity index (SI) = (mammalian cell IC50)/(Pb EEF IC50)” value in assay [3] was greater than 3. For the same molecule, the “Selectivity index (SI) = hHDAC1/hHDAC6” value in assay [6] turned out to be 13.

In the case of `CN(C)c1ccc(C(=O)N(Cc2ccc(C(=O)NO)cc2)C(C)(C)C(=O)NC2CCCCC2)cc1` [Compound 2c, N-(1-(Cyclohexylamino)-2-methyl-1-oxopropan-2-yl)-4-(dimethylamino)-N-(4-(hydroxycarbamoyl)benzyl)benzamide], the IC50 in assay [1] (setting [9]) was 0.095 µM; in assay [2] it was greater than 50 µM; in assay [3] it was 20.1 µM; in assay [4] it was 16.3 µM; in assay [5], 0.45 µM; in assay [6], 0.089 µM. Moreover, the “Selectivity index (SI) = (mammalian cell IC50)/(Pb EEF IC50)” value in assay [3] is listed as greater than 3. In assay [6], the “Selectivity index (SI) = hHDAC1/hHDAC6” value was 5.

Consider `Cc1cc(C)cc(CNC(=O)CN(Cc2ccc(C(=O)NO)cc2)C(=O)c2cc(C)cc(C)c2)c1` [Compound 2p, N-(2-((3,5-Dimethylbenzyl)amino)-2-oxoethyl)-N-(4-(hydroxycarbamoyl)benzyl)-3,5-dimethylbenzamide], for which, in assay [3], the “Selectivity index (SI) = (mammalian cell IC50)/(Pb EEF IC50)” value is 35. Also, the IC50 was determined as 0.58 µM in assay [3] and 5.27 µM in assay [4].

For the molecule `CNC(=O)CN(Cc1ccc(C(=O)NO)cc1)C(=O)c1cc(C)cc(C)c1` [Compound 2s, N-(4-(Hydroxycarbamoyl)benzyl)-3,5-dimethyl-N-(2-(methylamino)-2-oxoethyl)benzamide], the “Selectivity index (SI) = (mammalian cell IC50)/(P. falciparum IC50)” value in assay [1] (HepG2 vs Pf3D7) is 889. Further, the IC50 in assay [1] (setting [9]) was determined as 0.054 µM; in assay [2], 48 µM; in assay [3] it was 7.17 µM; in assay [4], 16.8 µM; in assay [5], 0.29 µM; in assay [6], 0.044 µM. For the same molecule, the “Selectivity index (SI) = (mammalian cell IC50)/(Pb EEF IC50)” value in assay [3] is given as 7. In assay [6], the “Selectivity index (SI) = hHDAC1/hHDAC6” value amounted to 7.

As for `O=C(NO)c1ccc(CC(=O)N(CCO)c2ccccc2)cc1` [HPOB], in assay [7], the IC50 was 2.1 µM.

In the case of `O=C(CCCCCCC(=O)Nc1ccccc1)NO` [SAHA, vorinostat, reference compound], in assay [1] (3D7, read-out: IC50 (Pf3D7)), the half-inhibitory concentration (IC50) was found to be 0.17 µM. Also, in assay [8], the “histone acetylation compared to the vehicle control (in words)” value was “significantly increased acetylation”.
